One data set relates to CFY strain male rats. As to the kind of experiment: Systolic blood pressure of non-anaesthetized rats, measured indirectly on the tail with a cuff. The following applies: for Blood pressure change related to the starting (control) value, 3rd hour / Blood pressure change related to the starting (control) value, 6th hour / Blood pressure change related to the starting (control) value, 12th hour / Blood pressure change related to the starting (control) value, 18th hour / Blood pressure change related to the starting (control) value, 24th hour / Blood pressure change related to the starting (control) value, 48th hour: n 5; for dose achieving hypotension of approximately the same intensity and duration: comparison of reserpine and the racemic compound, i.p. It is filed as in vivo. Here is the method:
The tests were carried. out on CFY strain male rats weighing 250-300 g. The systolic blood pressure was measured indirectly on the tails of the animals pressed down with the aid. of a cuff. […] The systolic blood pressure was determined by observing simultaneously the manometer and the out-signal.

For a further data set, the system named is CFLP strain female mice. The following applies: mouse, in vivo.
Data set [1] concerns male rats weighing 300 and having hypertension. Briefly: Systolic blood pressure decrease by the optically active enantiomers in hypertensive rats. It is filed as in vivo. The following applies: intraperitoneal 20 mg/kg, sixth hour following administration (maximum of the effect). Here is the method: The tests were carried. out on CFY strain male rats weighing 250-300 g. The systolic blood pressure was measured indirectly on the tails of the animals pressed down with the aid. of a cuff. When the pressure of the pressing cuff attached to a mercury manometer decreased just under the systolic pressure, the sensing head of the measuring apparatus (VP 101 microphone adapted for this purpose and placed on the tails of the rats) signalled the appearence of arterial pulsation both in acustical and visual way (oscilloscope). The systolic blood pressure was determined by observing simultaneously the manometer and the out-signal. When administering the raoemic compound intraperitoneally in doses of 10 and. […] The characteristics of the hypotensive effect of reserpine used as control are substantially the same as those of the racemic compound; hypotension of approximately the same intensity and duration can be achieved by administering 2,5 mg/kg of reserpine and 20 mg/kg of the racemic compound, respectively.
The optically active enantiomers were administered in intraperitoneal doses of 20 mg/kg to male rats weighing 300 and having hypertension. […]

[2] abbreviates: 2,5 mg/kg i.p., n 5, control 117 ± 2.
Setting [3] is: 5,0 mg/kg i.p., n 5, control 118 ± 2.
Setting [4] is: 10 mg/kg i.p., n 5, control 115 ± 2.
Where [5] appears, read: 20 mg/kg i.p., n 5, control 116 ± 2.
Setting [6] is: intraperitoneally 10 and 20 mg/kg.

Experimental for CFLP strain female mice: These tests were carried out on CFLP strain female mice weighing 20-25 g by the rotating rod method [A. Kovach: Testing methods of experimental medical sciences - A kisérletes orvostudomany vizsgáló m6dszerei - Akad6mia kiad6, Budapest, VI. 232-233, 1962)].

As for `COC(=O)[C@H]1[C@H]2C[C@@H]3c4[nH]c5cc(OC)ccc5c4CCN3C[C@H]2C[C@@H](OC(=O)c2cc(OC)c(OC)c(OC)c2)[C@@H]1OC` [RESERPINE, reserpine, reference compound], in the data set on CFY strain male rats (2,5 mg/kg i.p.), the “Blood pressure change related to the starting (control) value, 3rd hour” value (from here on “Blood pressure change related … 3rd hour”) is given as -11,11%; the “Blood pressure change related to the starting (control) value, 6th hour” value (shortened to “Blood pressure change related … 6th hour”) is given as -18,8%; the “Blood pressure change related to the starting (control) value, 12th hour” value (“Blood pressure change related … 12th hour” below) was -9,4%; the “Blood pressure change related to the starting (control) value, 18th hour” value (shortened to “Blood pressure change related … 18th hour”) is given as -12,82%. Besides, in the data set with CFY strain male rats (2,5 mg/kg i.p.), the “Blood pressure change related to the starting (control) value, 24th hour” value (“Blood pressure change related … 24th hour” for short) is on record as -10,26% and the “Blood pressure change related to the starting (control) value, 48th hour” value (“Blood pressure change related … 48th hour” below) was -6,48%. Moreover, in the data set on CFY strain male rats (setting [2]), the “Blood pressure (Hgmm; x̄ ± S.E.) 3rd hour” value stood at 104 ± 2 Hgmm, the “Blood pressure (Hgmm; x̄ ± S.E.) 6th hour” value was 95 ± 2 Hgmm, the “Blood pressure (Hgmm; x̄ ± S.E.) 12th hour” value amounted to 106 ± 2 Hgmm and the “Blood pressure (Hgmm; x̄ ± S.E.) 18th hour” value is 102 ± 1 Hgmm. In addition, in the data set on CFY strain male rats (setting [2]), the “Blood pressure (Hgmm; x̄ ± S.E.) 24th hour” value is on record as 105 ± 3 Hgmm and the “Blood pressure (Hgmm; x̄ ± S.E.) 48th hour” value was 109 ± 2 Hgmm. Further, in the data set on CFY strain male rats (5,0 mg/kg i.p.), the “Blood pressure change related … 3rd hour” value was -15,25%; the “Blood pressure change related … 6th hour” value is given as -19,49%; the “Blood pressure change related … 12th hour” value is listed as -13,56%; the “Blood pressure change related … 18th hour” value was -8,47%. Besides, in the data set with CFY strain male rats (5,0 mg/kg i.p.), the “Blood pressure change related … 24th hour” value is listed as -10,17% and the “Blood pressure change related … 48th hour” value was -5.93%. In the data set on CFY strain male rats (setting [3]), the “Blood pressure (Hgmm; x̄ ± S.E.) 3rd hour” value worked out at 100 ± 5 Hgmm, the “Blood pressure (Hgmm; x̄ ± S.E.) 6th hour” value was 95 ± 7 Hgmm, the “Blood pressure (Hgmm; x̄ ± S.E.) 12th hour” value stood at 102 ± 1 Hgmm and the “Blood pressure (Hgmm; x̄ ± S.E.) 18th hour” value was 108 ± 2 Hgmm. In the data set with CFY strain male rats (setting [3]), the “Blood pressure (Hgmm; x̄ ± S.E.) 24th hour” value was determined as 106 ± 3 Hgmm and the “Blood pressure (Hgmm; x̄ ± S.E.) 48th hour” value amounted to 111 ± 2 Hgmm. The “dose achieving hypotension of approximately the same intensity and duration” value with CFY strain male rats is on record as 2,5 mg/kg. Moreover, in the data set with CFLP strain female mice, the “Time for which mice stayed on the rotating rod (average, n = 10)” value was 9 ± 3,3 and the effect on coordination entry was “roduced coordination to a very significatn extent”.
Turning to “(+)-Methyl-7,8-methylenedioxy-15-(3,4,5--trimethoxy-benzoyloxy)-l4-oxo-epiallo--berbane-13-carboxylate [[(+), I]]”, the “blood-pressure decrease (average, n = 6)” value in data set [1] was 15,6 Hgmm.
Turning to `COC(=O)[C@H]1C(=O)[C@@H](OC(=O)c2cc(OC)c(OC)c(OC)c2)C[C@@H]2CN3CCc4cc5c(cc4[C@H]3C[C@@H]21)OCO5` (racemic) [SC-T 40, Racemic methyl-7,8-methylened.ioxy-15-(3,4,5--trimethoxy-benzoyloxy)-14-oxo-epiallo--berbane-13-carboxylate], in the data set with CFY strain male rats (10 mg/kg i.p.), the “Blood pressure change related … 3rd hour” value is reported as -4,23%; the “Blood pressure change related … 6th hour” value is listed as -13,88%; the “Blood pressure change related … 12th hour” value is reported as -12,14%; the “Blood pressure change related … 18th hour” value was -9,53%. In the data set with CFY strain male rats (10 mg/kg i.p.), the “Blood pressure change related … 24th hour” value was -9,64% and the “Blood pressure change related … 48th hour” value is reported as -9,53%. Moreover, in the data set with CFY strain male rats (setting [4]), the “Blood pressure (Hgmm; x̄ ± S.E.) 3rd hour” value was 110 ± 2 Hgmm, the “Blood pressure (Hgmm; x̄ ± S.E.) 6th hour” value was 99 ± 3 Hgmm, the “Blood pressure (Hgmm; x̄ ± S.E.) 12th hour” value was 101 ± 2 Hgmm and the “Blood pressure (Hgmm; x̄ ± S.E.) 18th hour” value is reported as 104 ± 2 Hgmm. For the same molecule, in the data set on CFY strain male rats (setting [4]), the “Blood pressure (Hgmm; x̄ ± S.E.) 24th hour” value is recorded as 104 ± 4 Hgmm and the “Blood pressure (Hgmm; x̄ ± S.E.) 48th hour” value amounted to 104 ± 2 Hgmm. Moreover, in the data set with CFY strain male rats (20 mg/kg i.p.), the “Blood pressure change related … 3rd hour” value is given as -7,98%; the “Blood pressure change related … 6th hour” value was -19,53%; the “Blood pressure change related … 12th hour” value is recorded as -17,11%; the “Blood pressure change related … 18th hour” value was -12,76%. For the same molecule, in the data set on CFY strain male rats (20 mg/kg i.p.), the “Blood pressure change related … 24th hour” value was -9,42% and the “Blood pressure change related … 48th hour” value is recorded as -4,23%. In the data set with CFY strain male rats (setting [5]), the “Blood pressure (Hgmm; x̄ ± S.E.) 3rd hour” value was found to be 107 ± 2 Hgmm, the “Blood pressure (Hgmm; x̄ ± S.E.) 6th hour” value came out at 93 ± 6 Hgmm, the “Blood pressure (Hgmm; x̄ ± S.E.) 12th hour” value is 96 ± 2 Hgmm and the “Blood pressure (Hgmm; x̄ ± S.E.) 18th hour” value was determined as 101 ± 3 Hgmm. Moreover, in the data set with CFY strain male rats (setting [5]), the “Blood pressure (Hgmm; x̄ ± S.E.) 24th hour” value worked out at 105 ± 2 Hgmm and the “Blood pressure (Hgmm; x̄ ± S.E.) 48th hour” value is reported as 111 ± 1 Hgmm. In addition, the “dose achieving hypotension of approximately the same intensity and duration” value with CFY strain male rats was determined as 20 mg/kg. Also, in the data set on CFY strain male rats (setting [6]), the “duration of the hypotensive effect” value is given as “still detected in the 48th hour” and the “time at which the hypotensive effect reached its maximum” value is given as “sixth hour”. Further, in the data set with CFY strain male rats (intraperitoneally 10 and 20 mg/kg, 3-6 hours after the administration), the hypotensive effect result is “significant hypotensive effect”. Besides, in the data set with CFLP strain female mice, the “Time for which mice stayed on the rotating rod (average, n = 10)” value is on record as 102 ± 12,0 and the effect on coordination result is recorded as “did not exhibit any effect on coordination”.
For the molecule “(-)-Methyl-7,8-methylenedioxy-15-(3,4,5--trimethoxy-benzoyloxy)-14-oxo-epiallo--berbane-13-carboxylate [[(-), I]]”, the “blood-pressure decrease (average, n = 6)” value in data set [1] was 14,8 Hgmm.

For the origin of these results see patent EP0091185A2, “Berbane derivatives” (CHINOIN Gyogyszer és Vegyészeti Termékek Gyára RT., priority 1982, dated 1983).
